According to patent US20090137661A1, “PLANT DERIVED COMPOUNDS AND COMPOUND FORMULAE CONTAINING THE SAME FOR THE TREATMENT OF CERVICAL CANCER” (priority 2007, published 2009):
Converted amounts (≈) assume the structure as drawn. Read-outs that look alike come from different tables or passages of the source.

Key:
[1] = tested on: HeLa cells; test: Cytotoxicity assay (MTT assay) on HeLa cells; conditions: for IC50: Homo sapiens, HeLa; for cytotoxicity to HeLa cells compared with Doxorubicin HCl: under the corresponding conditions
Method: HeLa cell line was obtained from Dr. S. S. Shen (Biomedical Engineering Research Laboratories of Industrial Technology Research Institute of Taiwan). HeLa cells are adherent cells and were propagated and maintained in Dulbecco's modified Eagle's medium (DMEM) supplemented with 10% fetal bovine serum (FBS), […] sodium bicarbonate (NaHCO3), 1 mM sodium pyruvate, and 0.1 mM non-essential amino acid.
(§1) Cytotoxicity Assay (MTT Assay)
The cytotoxicity of the compounds set forth herein to HeLa cells and HUVEC cells were determined by the MTT assay. The HUVEC cells were used to understand the cytotoxicity of said compounds to normal human cells. Besides, doxorubicin HCl was used as a comparative example so as to investigate the efficacy of the compounds according to the embodiments of the present invention.
Briefly, the MTT assay comprises the following steps: • (A) Cells were seeded in 96-well plates 3 hours before treatment, wherein the density of HeLa cell is 1×10^4 cells per well and the density of HUVEC cell is 2×10^4 cells per well; • (B) Cells were then treated with various concentrations of tested samples and incubated for a predetermined period (24, 48, and 72 hours); • (C) After the predetermined periods expired, the tested samples were removed and 100 μl MTT reagent (1 mg/ml) was added to each well; • (D) The plates were incubated at 37° C. with 5% of CO2 for 5 hours; • (E) The MTT reagent was removed and 100 μl DMSO was added to each well; • (F) The optical density (O.D.) of each well was determined by ELISA reader at a wavelength of 560 nm.
Each experiment was repeated for 3 times and the result shown in the tables herein were the mean value of the 3 repetitions. The O.D. of the vehicle control and experimental groups were recorded. The cell survival rate of each sample was calculated as follows:
Cell survival rate(%)=O.D.control/O.D.experimental*100%
Then, the cell survival rate was plotted against the compound concentration and the IC50 value of each compound was calculated by the GraFit data analysis software (Erithacus Software Ltd.).

[2] = tested on: HUVEC cells; test: Cytotoxicity assay (MTT assay) on HUVEC cells; type: cell-based, human; conditions: for IC50: Homo sapiens
Source text: Human umbilical vein endothelial cells (HUVEC) were purchased from Food Industry Research and Development Institute in Hsin-Chu City, Taiwan. HUVEC cells were propagated and maintained in Medium 199 supplemented with 10% FBS, Heparin, and […].
as §1

[3] = 24 h, read-out: IC50 at 24 hours, HeLa
[4] = 48 h, read-out: IC50 at 48 hours, HeLa
[5] = 72 h, read-out: IC50 at 72 hours, HeLa
[6] = HUVEC cells, 24 hours, read-out: IC50 at 24 hours, HUVEC
[7] = HUVEC cells, 48 hours, read-out: IC50 at 48 hours, HUVEC
[8] = HUVEC cells, 72 hours, read-out: IC50 at 72 hours, HUVEC

`O=C(O)[C@H]1O[C@@H](Oc2cc3oc(-c4ccccc4)cc(=O)c3c(O)c2O)[C@H](O)[C@@H](O)[C@@H]1O` [Compound G, baicalin] was tested, and the “HeLa Cell Survival Rate” value ([1]; 0.1 μg/ml, 24 hrs) was 104%, the “HeLa Cell Survival Rate” value ([1]; 0.1 μg/ml, 48 hrs) was 94% and the “HeLa Cell Survival Rate” value ([1]; 0.1 μg/ml, 72 hrs) was 97%. For the same compound, the “HeLa Cell Survival Rate” value ([1]; 1 μg/ml, 24 hrs) was 103%, the “HeLa Cell Survival Rate” value ([1]; 1 μg/ml, 48 hrs) was 96% and the “HeLa Cell Survival Rate” value ([1]; 1 μg/ml, 72 hrs) was 97%. For the same compound, the “HeLa Cell Survival Rate” value ([1]; 10 μg/ml, 24 hrs) was 109%, the “HeLa Cell Survival Rate” value ([1]; 10 μg/ml, 48 hrs) was 98% and the “HeLa Cell Survival Rate” value ([1]; 10 μg/ml, 72 hrs) was 97%. For the same compound, the “HeLa Cell Survival Rate” value ([1]; 100 μg/ml, 24 hrs) was 68%, the “HeLa Cell Survival Rate” value ([1]; 100 μg/ml, 48 hrs) was 50% and the “HeLa Cell Survival Rate” value ([1]; 100 μg/ml, 72 hrs) was 37%. For the same compound, the “HUVEC/HeLa ratio of IC50” value ([1]; 72 hours) was 2.4, the IC50 [1, 3] was > 125 µg/mL and the IC50 [1, 4] was > 125 µg/mL. The IC50 [1, 5] was 92 µg/mL (≈ 206 µM), the “HUVEC Cell Survival Rate” value ([2]; 1.25 μg/ml, 24 hrs) was 98% and the “HUVEC Cell Survival Rate” value ([2]; 1.25 μg/ml, 48 hrs) was 96%. For the same compound, the “HUVEC Cell Survival Rate” value ([2]; 1.25 μg/ml, 72 hrs) was 88%, the “HUVEC Cell Survival Rate” value ([2]; 12.5 μg/ml, 24 hrs) was 97% and the “HUVEC Cell Survival Rate” value ([2]; 12.5 μg/ml, 48 hrs) was 101%. For the same compound, the “HUVEC Cell Survival Rate” value ([2]; 12.5 μg/ml, 72 hrs) was 75%, the “HUVEC Cell Survival Rate” value ([2]; 125 μg/ml, 24 hrs) was 81% and the “HUVEC Cell Survival Rate” value ([2]; 125 μg/ml, 48 hrs) was 76%. For the same compound, the “HUVEC Cell Survival Rate” value ([2]; 125 μg/ml, 72 hrs) was 56%, the IC50 [2, 6] was > 125 µg/mL and the IC50 [2, 7] was > 125 µg/mL. It also gave an IC50 [2, 8] of 218 µg/mL (≈ 488 µM).
With `CC(C)[C@]12O[C@H]1[C@@H]1O[C@]13[C@]1(O[C@H]1C[C@H]1C4=C(CC[C@@]13C)C(=O)OC4)[C@@H]2O` [Compound B, triptolide] the “HeLa Cell Survival Rate” value ([1]; 0.001 μg/ml, 24 hrs) was 98%, the “HeLa Cell Survival Rate” value ([1]; 0.001 μg/ml, 48 hrs) was 94% and the “HeLa Cell Survival Rate” value ([1]; 0.001 μg/ml, 72 hrs) was 81%. The “HeLa Cell Survival Rate” value ([1]; 0.01 μg/ml, 24 hrs) was 89%, the “HeLa Cell Survival Rate” value ([1]; 0.01 μg/ml, 48 hrs) was 37% and the “HeLa Cell Survival Rate” value ([1]; 0.01 μg/ml, 72 hrs) was 15%. For the same compound, the “HeLa Cell Survival Rate” value ([1]; 0.1 μg/ml, 24 hrs) was 33%, the “HeLa Cell Survival Rate” value ([1]; 0.1 μg/ml, 48 hrs) was 14% and the “HeLa Cell Survival Rate” value ([1]; 0.1 μg/ml, 72 hrs) was 9%. For the same compound, the “HeLa Cell Survival Rate” value ([1]; 1 μg/ml, 24 hrs) was 26%, the “HeLa Cell Survival Rate” value ([1]; 1 μg/ml, 48 hrs) was 12% and the “HeLa Cell Survival Rate” value ([1]; 1 μg/ml, 72 hrs) was 9%. The “HeLa Cell Survival Rate” value ([1]; 100 μg/ml, 24 hrs) was 20%, the “HeLa Cell Survival Rate” value ([1]; 100 μg/ml, 48 hrs) was 13% and the “HeLa Cell Survival Rate” value ([1]; 100 μg/ml, 72 hrs) was 9%. The “HUVEC/HeLa ratio of IC50” value ([1]; 24 hours) was >13.9, the “HUVEC/HeLa ratio of IC50” value ([1]; 48 hours) was 20.9 and the “HUVEC/HeLa ratio of IC50” value ([1]; 72 hours) was 29.3. It also gave an IC50 [1, 3] of 0.0721 µg/mL (≈ 0.2 µM), an IC50 [1, 4] of 0.00724 µg/mL (≈ 0.0201 µM) and an IC50 [1, 5] of 0.00287 µg/mL (≈ 0.00796 µM). The “cytotoxicity to HeLa cells compared with Doxorubicin HCl” value [1] was “higher cytotoxicity”, the “HUVEC Cell Survival Rate” value ([2]; 0.001 μg/ml, 24 hrs) was 93% and the “HUVEC Cell Survival Rate” value ([2]; 0.001 μg/ml, 48 hrs) was 102%. The “HUVEC Cell Survival Rate” value ([2]; 0.001 μg/ml, 72 hrs) was 108%, the “HUVEC Cell Survival Rate” value ([2]; 0.01 μg/ml, 24 hrs) was 94% and the “HUVEC Cell Survival Rate” value ([2]; 0.01 μg/ml, 48 hrs) was 111%. For the same compound, the “HUVEC Cell Survival Rate” value ([2]; 0.01 μg/ml, 72 hrs) was 114%, the “HUVEC Cell Survival Rate” value ([2]; 0.1 μg/ml, 24 hrs) was 59% and the “HUVEC Cell Survival Rate” value ([2]; 0.1 μg/ml, 48 hrs) was 36%. For the same compound, the “HUVEC Cell Survival Rate” value ([2]; 0.1 μg/ml, 72 hrs) was 23%, the “HUVEC Cell Survival Rate” value ([2]; 1 μg/ml, 24 hrs) was 71% and the “HUVEC Cell Survival Rate” value ([2]; 1 μg/ml, 48 hrs) was 35%. For the same compound, the “HUVEC Cell Survival Rate” value ([2]; 1 μg/ml, 72 hrs) was 23%, the IC50 [2, 6] was > 1 µg/mL and the IC50 [2, 7] was 0.151 µg/mL (≈ 0.419 µM). The IC50 [2, 8] was 0.084 µg/mL (≈ 0.233 µM).
For isopsoralen [Compound A], the “HeLa Cell Survival Rate” value ([1]; 0.125 μg/ml, 24 hrs) was 91%, the “HeLa Cell Survival Rate” value ([1]; 0.125 μg/ml, 48 hrs) was 99% and the “HeLa Cell Survival Rate” value ([1]; 0.125 μg/ml, 72 hrs) was 98%. For the same compound, the “HeLa Cell Survival Rate” value ([1]; 1.25 μg/ml, 24 hrs) was 88%, the “HeLa Cell Survival Rate” value ([1]; 1.25 μg/ml, 48 hrs) was 75% and the “HeLa Cell Survival Rate” value ([1]; 1.25 μg/ml, 72 hrs) was 69%. The “HeLa Cell Survival Rate” value ([1]; 12.5 μg/ml, 24 hrs) was 70%, the “HeLa Cell Survival Rate” value ([1]; 12.5 μg/ml, 48 hrs) was 30% and the “HeLa Cell Survival Rate” value ([1]; 12.5 μg/ml, 72 hrs) was 10%. For the same compound, the “HeLa Cell Survival Rate” value ([1]; 125 μg/ml, 24 hrs) was 18%, the “HeLa Cell Survival Rate” value ([1]; 125 μg/ml, 48 hrs) was 11% and the “HeLa Cell Survival Rate” value ([1]; 125 μg/ml, 72 hrs) was 7%. The “HUVEC/HeLa ratio of IC50” value ([1]; 24 hours) was >4.6, the “HUVEC/HeLa ratio of IC50” value ([1]; 48 hours) was 11.4 and the “HUVEC/HeLa ratio of IC50” value ([1]; 72 hours) was 19. The “IC50 at 24 hours, HeLa” value ([1]; HeLa cells, 24 hours) was 27 µg/mL, the “IC50 at 48 hours, HeLa” value ([1]; HeLa cells, 48 hours) was 5 µg/mL and the “IC50 at 72 hours, HeLa” value ([1]; HeLa cells, 72 hours) was 2 µg/mL. For the same compound, the “cytotoxicity to HeLa cells compared with Doxorubicin HCl” value [1] was “higher cytotoxicity”, the “HUVEC Cell Survival Rate” value ([2]; 0.125 μg/ml, 24 hrs) was 103% and the “HUVEC Cell Survival Rate” value ([2]; 0.125 μg/ml, 48 hrs) was 104%. For the same compound, the “HUVEC Cell Survival Rate” value ([2]; 0.125 μg/ml, 72 hrs) was 92%, the “HUVEC Cell Survival Rate” value ([2]; 1.25 μg/ml, 24 hrs) was 103% and the “HUVEC Cell Survival Rate” value ([2]; 1.25 μg/ml, 48 hrs) was 96%. For the same compound, the “HUVEC Cell Survival Rate” value ([2]; 1.25 μg/ml, 72 hrs) was 87%, the “HUVEC Cell Survival Rate” value ([2]; 12.5 μg/ml, 24 hrs) was 100% and the “HUVEC Cell Survival Rate” value ([2]; 12.5 μg/ml, 48 hrs) was 83%. The “HUVEC Cell Survival Rate” value ([2]; 12.5 μg/ml, 72 hrs) was 80%, the “HUVEC Cell Survival Rate” value ([2]; 125 μg/ml, 24 hrs) was 67% and the “HUVEC Cell Survival Rate” value ([2]; 125 μg/ml, 48 hrs) was 31%. For the same compound, the “HUVEC Cell Survival Rate” value ([2]; 125 μg/ml, 72 hrs) was 19%, the “IC50 at 24 hours, HUVEC” value ([2]; HUVEC cells, 24 hours) was >125 µg/mL and the “IC50 at 48 hours, HUVEC” value ([2]; HUVEC cells, 48 hours) was 57 µg/mL. For the same compound, the “IC50 at 72 hours, HUVEC” value ([2]; HUVEC cells, 72 hours) was 38 µg/mL.
